{
  "source": "patent US20210069152A1",
  "about": "“METHODS FOR TREATING HETEROTOPIC OSSIFICATION” (Clementia Pharmaceuticals Inc., priority 2016, published 2021)",
  "key": {"[1]": {"tested_on": "heterotopic ossification in subjects with fibrodysplasia ossificans progressiva", "assay": "Flare-up outcomes, open-label study (new HO by low-dose CT scan)", "format": "in vivo, human", "settings": "open-label extension study, 27 flare-ups treated with open-label palovarotene", "experimental": "(§1) Sixty-seven flare-ups have been treated: 40 with double-blind medication (10 subjects received placebo, 9 subjects received palovarotene at 5 mg once daily for 2 weeks followed by 2.5 mg once daily for 4 weeks, and 21 subjects received palovarotene at 10 mg once daily for 2 weeks followed by 5 mg once daily for 4 weeks); and 27 received open-label palovarotene. Sixty-one of these 67 flare-ups have available results from post-baseline imaging (by low-dose CT scan). The results are summarized for the respective studies in FIGS. 1 and 2."}, "[2]": {"tested_on": "heterotopic ossification in subjects with fibrodysplasia ossificans progressiva", "assay": "Volume of new heterotopic ossification at flare-up site (x-ray / low-dose CT) in FOP patients, adult cohort dosing regimens", "format": "in vivo, human", "settings": "for reduction in mean bone volume formation (new HO) relative to Placebo/Untreated group: 12 weeks", "experimental": "FIGS. 3A and 3B are graphs showing a comparison of the volume of new heterotopic ossification between (i) episodic treatment of FOP patients (i.e., treatment during non-quiescent periods only and (ii) the treatment regimens of the present invention that include treatment during both quiescent and non-quiescent periods. Patients in the “Placebo/Untreated” group were treated with a sugar pill or untreated (28 patients). Patients in the “PVO Non-Quiescent Only” group were treated with either 20 mg palovarotene (PVO) daily for 28 days followed by 10 mg PVO daily for 56 days (47 patients) or 10 mg PVO daily for 14 days followed by 5 mg PVO daily for 28 days (9 patients). Patients in the “PVO Quiescent/Non-Quiescent” group were treated with 5 mg PVO daily during the quiescent period and with 20 mg PVO daily for 28 days (NQ loading dose) followed by 10 mg PVO daily for 56 days (NQ maintenance dose) following initiation of flare-up symptoms, i.e., initiation of a non-quiescent period (10 patients).\nAdult cohort includes individuals who have achieved at least 90% skeletal maturity irrespective of age. Individuals in the adult cohort received palovarotene (neutral form) at 5 mg once daily as a non-flare-up based treatment (e.g., during periods when symptoms of a flare-up were not present). […]\nAssessment of new HO at the flare-up site was evaluated using x-ray, and low-dose CT imaging was employed as a secondary imaging assessment. […] In order to ensure consistency and standardization, images were evaluated for the presence or absence of HO using two independent procedures, both of which were blinded to treatment group assignment. In the Primary Read process, two musculoskeletal radiologists independently compared baseline and post-baseline images within a single imaging modality.\nThe volume of new heterotopic ossification (HO), HO that occurred during the non-quiescent period, was assessed 12 weeks following initiation of treatment for the “Non-Quiescent Only” treatment group and 12 weeks after initiation of the 20 mg/day NQ loading dose in the “Quiescent/Non-Quiescent” treatment group."}, "[3]": {"tested_on": "Prrx1-R206H mice", "assay": "Growth plate assessment in Prrx1-R206H mice", "format": "in vivo", "experimental": "(§2) The effects of palovarotene on the growth plates were assessed."}, "[4]": {"tested_on": "wild-type mice", "assay": "Growth plate assessment in wild-type mice", "format": "in vivo", "experimental": "as §2"}, "[5]": {"tested_on": "growth plate", "assay": "Growth plate assessment by knee and hand/wrist radiographs in children", "format": "in vivo, human", "settings": "acute 6-week treatment"}, "[6]": {"tested_on": "subjects with fibrodysplasia ossificans progressiva", "assay": "Safety outcomes, open-label study", "format": "in vivo, human", "experimental": "as §1\nThe findings were similar in the open-label study (described in Example 1) in which the overall incidence of adverse events was 92.3% (12 of 13 subjects). Retinoid-associated adverse events were reported by all subjects; most were mild (69.2%) in severity. The most frequently reported adverse events overall were dry skin (69.2%) and pruritus (61.5%)."}, "[7]": {"tested_on": "subjects with fibrodysplasia ossificans progressiva", "assay": "Safety outcomes, double-blind study", "format": "in vivo, human", "experimental": "as §1\nThe most frequently reported adverse events overall were dry skin (58.8%) and dry lips (32.4%)."}},
  "data": [
    {"smiles": "CC1(C)CCC(C)(C)c2cc(Cn3cccn3)c(/C=C/c3ccc(C(=O)O)cc3)cc21", "note": "[palovarotene, 4-[(1E)-2-[5,6,7,8-Tetrahydro-5,5,8,8-tetramethyl-3-(1H-pyrazol-1-ylmethyl)-2-naphthalenyl]-ethenyl]-benzoic acid]", "values": [
      {"measurement": "number of flare-ups with new HO", "setting": "[1]", "value": "four"},
      {"measurement": "reduction in mean bone volume formation (new HO) relative to Placebo/Untreated group", "setting": "[2]; Non-Quiescent Only group (both doses pooled)", "value": 75, "unit": "%"},
      {"measurement": "volume of new heterotopic ossification", "setting": "[2]; PVO Quiescent/Non-Quiescent: 5 mg daily quiescent, 20 mg daily 28 days then 10 mg daily 56 days after flare-up (10 patients), 12 weeks after start of NQ loading dose", "value": 212, "unit": "mm^3"},
      {"measurement": "reduction in mean bone volume formation (new HO) relative to Placebo/Untreated group", "setting": "[2]; Quiescent/Non-Quiescent group", "value": 97, "unit": "%"},
      {"measurement": "effect on long bone growth, growth plate organization and matrix deposition", "setting": "[3]", "value": "preserved long bone growth and near-normalized growth plate organization and matrix deposition"},
      {"measurement": "effect on histologic growth plate abnormalities and long bone length", "setting": "[3]; daily dosing", "value": "reversed histologic growth plate abnormalities and shortened long bones"},
      {"measurement": "effect on growth plate", "setting": "[4]", "value": "Adverse effects"},
      {"measurement": "adverse effects on the growth plate", "setting": "[5]", "value": "no adverse effects on the growth plate"},
      {"measurement": "dose reductions or discontinuations of treatment", "setting": "[6]", "value": "no dose reductions or discontinuations of treatment"},
      {"measurement": "retinoid-associated adverse events mild in severity", "setting": "[6]", "value": 69.2, "unit": "%"},
      {"measurement": "subjects reporting retinoid-associated adverse events", "setting": "[6]", "value": "all subjects"},
      {"measurement": "overall incidence of adverse events", "setting": "[6]; 12 of 13 subjects", "value": 92.3, "unit": "%"},
      {"measurement": "incidence of dry skin", "setting": "[6]; overall", "value": 69.2, "unit": "%"},
      {"measurement": "incidence of pruritus", "setting": "[6]; overall", "value": 61.5, "unit": "%"},
      {"measurement": "dose reductions or discontinuations of treatment", "setting": "[7]", "value": "no dose reductions or discontinuations of treatment"},
      {"measurement": "incidence and severity of retinoid-associated adverse events, trend", "setting": "[7]", "value": "dose-related increases in the incidence and severity"},
      {"measurement": "severity of most retinoid-associated adverse events", "setting": "[7]", "value": "mild or moderate"},
      {"measurement": "trend of adverse event incidence across the treatment groups", "setting": "[7]", "value": "dose-related increases across the treatment groups"},
      {"measurement": "overall incidence of adverse events", "setting": "[7]; 33 of 34 subjects with safety data, all treatment groups (placebo, 5/2.5 mg, 10/5 mg)", "value": 97.1, "unit": "%"},
      {"measurement": "incidence of dry lips", "setting": "[7]; overall", "value": 32.4, "unit": "%"},
      {"measurement": "incidence of dry skin", "setting": "[7]; overall", "value": 58.8, "unit": "%"}
    ]}
  ]
}
